Drawing on the supplement of paper PMC10307832, this text covers relative viability for four compounds.

SMILES strings stand for the structures.

One experiment concerns NCI-H23. Put plainly: relative viability (nuclei count vs DMSO), 5 days (fraction); higher = more cells survive. The conditions noted are these: first compound 0.6325 µM. The method, boiled down: (§1)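 Relative viability equals treated-well nuclei counts divided by vehicle-well nuclei counts. Counts came from 4× images of lung cancer cell lines grown in 1536-well plates for 5 days after pin-tool dosing on the day after seeding. Dosing used one drug alone or a fixed anchor-drug dose plus five library-drug doses (not always all listed) in √10 steps, and values are medians of duplicate plates.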
On to `COCC1(CO)C(=O)C2CCN1CC2` (stereo unspecified) [PRIMA-1MET] + CC(=O)c1c(C)c2cnc(Nc3ccc(N4CCNCC4)cn3)nc2n(C2CCCC2)c1=O [Palbociclib] (partner 0.5 µM), for which the relative viability was 0.351.

Turning to `COCC1(CO)C(=O)C2CCN1CC2` (stereo unspecified) [PRIMA-1MET] + Cc1nc(Nc2ncc(C(=O)Nc3c(C)cccc3Cl)s2)cc(N2CCN(CCO)CC2)n1 [Dasatinib] (partner 0.075 µM), the relative viability was 0.799.

As to `COCC1(CO)C(=O)C2CCN1CC2` (stereo unspecified) [PRIMA-1MET] + O=C(c1cc(Cc2n[nH]c(=O)c3ccccc23)ccc1F)N1CCN(C(=O)C2CC2)CC1 [Olaparib] (partner 8 µM), the relative viability came to 0.291.

The same experiment, now with this note: first compound 2 µM.
Consider `COCC1(CO)C(=O)C2CCN1CC2` (stereo unspecified) [PRIMA-1MET] + N=C(N)NC(=N)NCCc1ccccc1 [Phenformin] (partner 250 µM), for which the relative viability worked out at 0.822.

Compound `COCC1(CO)C(=O)C2CCN1CC2` (stereo unspecified) [PRIMA-1MET] + CC(=O)c1c(C)c2cnc(Nc3ccc(N4CCNCC4)cn3)nc2n(C2CCCC2)c1=O [Palbociclib] (partner 0.5 µM) returned a relative viability of 0.416.

`COCC1(CO)C(=O)C2CCN1CC2` (stereo unspecified) [PRIMA-1MET] + Cc1nc(Nc2ncc(C(=O)Nc3c(C)cccc3Cl)s2)cc(N2CCN(CCO)CC2)n1 [Dasatinib] (partner 0.075 µM) registered a relative viability of 0.687.

Take `COCC1(CO)C(=O)C2CCN1CC2` (stereo unspecified) [PRIMA-1MET] + O=C(c1cc(Cc2n[nH]c(=O)c3ccccc23)ccc1F)N1CCN(C(=O)C2CC2)CC1 [Olaparib] (partner 8 µM): the relative viability is 0.287.

The experiment is the same for the next values; noted with them: first compound 6.325 µM.
As to `COCC1(CO)C(=O)C2CCN1CC2` (stereo unspecified) [PRIMA-1MET] + N=C(N)NC(=N)NCCc1ccccc1 [Phenformin] (partner 250 µM), the relative viability is 0.842.

In the case of `COCC1(CO)C(=O)C2CCN1CC2` (stereo unspecified) [PRIMA-1MET] + CC(=O)c1c(C)c2cnc(Nc3ccc(N4CCNCC4)cn3)nc2n(C2CCCC2)c1=O [Palbociclib] (partner 0.5 µM), the relative viability came to 0.538.

Regarding `COCC1(CO)C(=O)C2CCN1CC2` (stereo unspecified) [PRIMA-1MET] + Cc1nc(Nc2ncc(C(=O)Nc3c(C)cccc3Cl)s2)cc(N2CCN(CCO)CC2)n1 [Dasatinib] (partner 0.075 µM), the relative viability came out at 0.721.

For `COCC1(CO)C(=O)C2CCN1CC2` (stereo unspecified) [PRIMA-1MET] + O=C(c1cc(Cc2n[nH]c(=O)c3ccccc23)ccc1F)N1CCN(C(=O)C2CC2)CC1 [Olaparib] (partner 8 µM), the relative viability is 0.27.

Still in this experiment, the particulars now being: first compound 20 µM.
Turning to `COCC1(CO)C(=O)C2CCN1CC2` (stereo unspecified) [PRIMA-1MET] + N=C(N)NC(=N)NCCc1ccccc1 [Phenformin] (partner 250 µM), the relative viability is 0.561.

`COCC1(CO)C(=O)C2CCN1CC2` (stereo unspecified) [PRIMA-1MET] + CC(=O)c1c(C)c2cnc(Nc3ccc(N4CCNCC4)cn3)nc2n(C2CCCC2)c1=O [Palbociclib] (partner 0.5 µM) came in with a relative viability of 0.121.

In turn, `COCC1(CO)C(=O)C2CCN1CC2` (stereo unspecified) [PRIMA-1MET] + Cc1nc(Nc2ncc(C(=O)Nc3c(C)cccc3Cl)s2)cc(N2CCN(CCO)CC2)n1 [Dasatinib] (partner 0.075 µM) showed a relative viability of 0.221.

`COCC1(CO)C(=O)C2CCN1CC2` (stereo unspecified) [PRIMA-1MET] + O=C(c1cc(Cc2n[nH]c(=O)c3ccccc23)ccc1F)N1CCN(C(=O)C2CC2)CC1 [Olaparib] (partner 8 µM) returned a relative viability of 0.082.

The test system of the next experiment is NCI-H2405. The experiment is described as above. Particulars: first compound 0.2 µM. A digest of the protocol: as §1
Compound `COCC1(CO)C(=O)C2CCN1CC2` (stereo unspecified) [PRIMA-1MET] + N=C(N)NC(=N)NCCc1ccccc1 [Phenformin] (partner 250 µM) showed a relative viability of 0.296.

In turn, `COCC1(CO)C(=O)C2CCN1CC2` (stereo unspecified) [PRIMA-1MET] + CC(=O)c1c(C)c2cnc(Nc3ccc(N4CCNCC4)cn3)nc2n(C2CCCC2)c1=O [Palbociclib] (partner 0.5 µM) had a relative viability of 0.487.

Compound `COCC1(CO)C(=O)C2CCN1CC2` (stereo unspecified) [PRIMA-1MET] + Cc1nc(Nc2ncc(C(=O)Nc3c(C)cccc3Cl)s2)cc(N2CCN(CCO)CC2)n1 [Dasatinib] (partner 0.075 µM) registered a relative viability of 0.197.

With `COCC1(CO)C(=O)C2CCN1CC2` (stereo unspecified) [PRIMA-1MET] + O=C(c1cc(Cc2n[nH]c(=O)c3ccccc23)ccc1F)N1CCN(C(=O)C2CC2)CC1 [Olaparib] (partner 8 µM), the relative viability is 0.947.

Still in this experiment, the particulars now being: first compound 0.6325 µM.
In turn, `COCC1(CO)C(=O)C2CCN1CC2` (stereo unspecified) [PRIMA-1MET] + N=C(N)NC(=N)NCCc1ccccc1 [Phenformin] (partner 250 µM) returned a relative viability of 0.401.

`COCC1(CO)C(=O)C2CCN1CC2` (stereo unspecified) [PRIMA-1MET] + CC(=O)c1c(C)c2cnc(Nc3ccc(N4CCNCC4)cn3)nc2n(C2CCCC2)c1=O [Palbociclib] (partner 0.5 µM) displayed a relative viability of 0.539.

`COCC1(CO)C(=O)C2CCN1CC2` (stereo unspecified) [PRIMA-1MET] + Cc1nc(Nc2ncc(C(=O)Nc3c(C)cccc3Cl)s2)cc(N2CCN(CCO)CC2)n1 [Dasatinib] (partner 0.075 µM) came in with a relative viability of 0.199.

Compound `COCC1(CO)C(=O)C2CCN1CC2` (stereo unspecified) [PRIMA-1MET] + O=C(c1cc(Cc2n[nH]c(=O)c3ccccc23)ccc1F)N1CCN(C(=O)C2CC2)CC1 [Olaparib] (partner 8 µM) returned a relative viability of 0.986.

The experiment is the same for the next values; noted with them: first compound 6.325 µM.
In turn, `COCC1(CO)C(=O)C2CCN1CC2` (stereo unspecified) [PRIMA-1MET] + N=C(N)NC(=N)NCCc1ccccc1 [Phenformin] (partner 250 µM) had a relative viability of 0.288.

For the compound `COCC1(CO)C(=O)C2CCN1CC2` (stereo unspecified) [PRIMA-1MET] + CC(=O)c1c(C)c2cnc(Nc3ccc(N4CCNCC4)cn3)nc2n(C2CCCC2)c1=O [Palbociclib] (partner 0.5 µM), the relative viability was determined as 0.518.

The compound `COCC1(CO)C(=O)C2CCN1CC2` (stereo unspecified) [PRIMA-1MET] + Cc1nc(Nc2ncc(C(=O)Nc3c(C)cccc3Cl)s2)cc(N2CCN(CCO)CC2)n1 [Dasatinib] (partner 0.075 µM) showed a relative viability of 0.169.
